According to PubChem BioAssay AID1745844 (Carcinogenic Potency Database (CPDB), 2022):
Active and inactive are the calls of the source. How the calls were made is not given here.

Tested on: rodent lifetime carcinogenesis bioassay, tumor incidence TD50
Assay: carcinogenic potency in animals, long-term in vivo studies, CPDB compilation (AID 1745844)
Conditions: rat

O=NN(CCO)CCO
carcinogen call (strain F344/DuCrj, males, in drinking water, site: liver, lesion: one or several types, types not named, dosed 40 weeks, study length 78 weeks): negative (inactive)
TD50 (strain Fischer 344, females, in drinking water, site: esophagus, lesion: papilloma, dosed 55 weeks, study length 105 weeks): 2050 mg/kg/day
TD50 (strain Fischer 344, females, in drinking water, site: kidney, lesion: one or several types, types not named, dosed 55 weeks, study length 105 weeks): 327 mg/kg/day
TD50 (strain Fischer 344, females, in drinking water, site: kidney, lesion: several types, types named in the paper, dosed 75 weeks, study length 130 weeks): 42.2 mg/kg/day
TD50 (strain Fischer 344, females, in drinking water, site: liver, lesion: cholangioadenoma/carcinoma, dosed 75 weeks, study length 130 weeks): 56.8 mg/kg/day
TD50 (strain Fischer 344, females, in drinking water, site: liver, lesion: cholangiocarcinoma, dosed 55 weeks, study length 105 weeks): 197 mg/kg/day
TD50 (strain Fischer 344, females, in drinking water, site: liver, lesion: hemangiosarcoma, dosed 50 weeks, study length 120 weeks): 45.4 mg/kg/day
TD50 (strain Fischer 344, females, in drinking water, site: liver, lesion: hepatocellular carcinoma, dosed 50 weeks, study length 120 weeks): 1.94 mg/kg/day
TD50 (strain Fischer 344, females, in drinking water, site: liver, lesion: hepatocellular carcinoma, dosed 55 weeks, study length 105 weeks): 3.27 mg/kg/day
TD50 (strain Fischer 344, females, in drinking water, site: liver, lesion: hepatocellular carcinoma, dosed 75 weeks, study length 130 weeks): 4.05 mg/kg/day
TD50 (strain Fischer 344, females, in drinking water, site: liver, lesion: neoplastic nodule, dosed 75 weeks, study length 130 weeks): 2.93 mg/kg/day
TD50 (strain Fischer 344, females, in drinking water, site: liver, lesion: several types, types named in the paper, dosed 75 weeks, study length 130 weeks): 1.9 mg/kg/day
TD50 (strain Fischer 344, females, in drinking water, site: nasal cavity, lesion: adenocarcinoma, dosed 55 weeks, study length 105 weeks): 44.1 mg/kg/day
TD50 (strain Fischer 344, females, in drinking water, site: nasal cavity, lesion: olfactory carcinoma, dosed 55 weeks, study length 105 weeks): 128 mg/kg/day
TD50 (strain Fischer 344, females, in drinking water, site: nasal cavity, lesion: squamous-cell carcinoma, dosed 55 weeks, study length 105 weeks): 4320 mg/kg/day
TD50 (strain Fischer 344, males, in drinking water, site: esophagus, lesion: carcinoma, dosed 48 weeks, study length 95 weeks): 432 mg/kg/day
TD50 (strain Fischer 344, males, in drinking water, site: esophagus, lesion: papilloma, dosed 48 weeks, study length 95 weeks): 207 mg/kg/day
TD50 (strain Fischer 344, males, in drinking water, site: kidney, lesion: one or several types, types not named, dosed 48 weeks, study length 95 weeks): 99.7 mg/kg/day
TD50 (strain Fischer 344, males, in drinking water, site: kidney, lesion: several types, types named in the paper, dosed 75 weeks, study length 125 weeks): 19 mg/kg/day
TD50 (strain Fischer 344, males, in drinking water, site: liver, lesion: cholangioadenoma/carcinoma, dosed 75 weeks, study length 125 weeks): 38.6 mg/kg/day
TD50 (strain Fischer 344, males, in drinking water, site: liver, lesion: cholangiocarcinoma, dosed 48 weeks, study length 95 weeks): 23.9 mg/kg/day
TD50 (strain Fischer 344, males, in drinking water, site: liver, lesion: hepatocellular carcinoma, dosed 48 weeks, study length 95 weeks): 2.77 mg/kg/day
TD50 (strain Fischer 344, males, in drinking water, site: liver, lesion: hepatocellular carcinoma, dosed 75 weeks, study length 125 weeks): 9.03 mg/kg/day
TD50 (strain Fischer 344, males, in drinking water, site: liver, lesion: neoplastic nodule, dosed 75 weeks, study length 125 weeks): 3.93 mg/kg/day
TD50 (strain Fischer 344, males, in drinking water, site: liver, lesion: several types, types named in the paper, dosed 75 weeks, study length 125 weeks): 2.84 mg/kg/day
TD50 (strain Fischer 344, males, in drinking water, site: nasal cavity, lesion: adenocarcinoma, dosed 48 weeks, study length 95 weeks): 15.5 mg/kg/day
TD50 (strain Fischer 344, males, in drinking water, site: nasal cavity, lesion: olfactory carcinoma, dosed 48 weeks, study length 95 weeks): 50.4 mg/kg/day
TD50 (strain Fischer 344, males, in drinking water, site: nasal cavity, lesion: squamous-cell carcinoma, dosed 48 weeks, study length 95 weeks): 280 mg/kg/day
TD50 (strain Sprague-Dawley, males, in drinking water, site: all sites, lesion: one or several types, types not named, dosed 162 weeks, study length 167 weeks): 55.6 mg/kg/day
TD50 (strain Sprague-Dawley, males, in drinking water, site: any site (literature study), lesion: benign tumor, dosed 162 weeks, study length 167 weeks): 7.93 mg/kg/day
TD50 (strain Sprague-Dawley, males, in drinking water, site: any site (literature study), lesion: malignant tumor, dosed 162 weeks, study length 167 weeks): 23.5 mg/kg/day
TD50 (strain Sprague-Dawley, males, in drinking water, site: gastrointestinal tract, lesion: several types, types named in the paper, dosed 162 weeks, study length 167 weeks): 143 mg/kg/day
TD50 (strain Sprague-Dawley, males, in drinking water, site: liver, lesion: cholangiocarcinoma, ductular, dosed 118 weeks, study length 147 weeks): 10700 mg/kg/day
TD50 (strain Sprague-Dawley, males, in drinking water, site: liver, lesion: hemangioendothelioma, benign, dosed 162 weeks, study length 167 weeks): 126 mg/kg/day
TD50 (strain Sprague-Dawley, males, in drinking water, site: liver, lesion: hepatocellular adenocarcinoma, dosed 118 weeks, study length 147 weeks): 9.51 mg/kg/day
TD50 (strain Sprague-Dawley, males, in drinking water, site: liver, lesion: hepatocellular adenoma, dosed 162 weeks, study length 167 weeks): 347 mg/kg/day
TD50 (strain Sprague-Dawley, males, in drinking water, site: liver, lesion: hepatocellular carcinoma, dosed 162 weeks, study length 167 weeks): 70.4 mg/kg/day
TD50 (strain Sprague-Dawley, males, in drinking water, site: liver, lesion: several types, types named in the paper, dosed 118 weeks, study length 147 weeks): 8.23 mg/kg/day
TD50 (strain Sprague-Dawley, males, in drinking water, site: liver, lesion: several types, types named in the paper, dosed 162 weeks, study length 167 weeks): 38.4 mg/kg/day
TD50 (strain Sprague-Dawley, males, in drinking water, site: nasal cavity, lesion: olfactory neuroepithelioma, dosed 118 weeks, study length 147 weeks): 679 mg/kg/day
TD50 (strain Sprague-Dawley, males, in drinking water, site: nasal cavity, lesion: several types, types named in the paper, dosed 118 weeks, study length 147 weeks): 168 mg/kg/day
TD50 (strain Sprague-Dawley, males, in drinking water, site: nasal cavity, lesion: squamous-cell carcinoma, dosed 118 weeks, study length 147 weeks): 954 mg/kg/day
TD50 (strain Sprague-Dawley, males, in drinking water, site: nervous system, lesion: one or several types, types not named, dosed 162 weeks, study length 167 weeks): 42.5 mg/kg/day

CN[C@H]1CCc2cc(OC)c(OC)c(OC)c2-c2ccc(OC)c(=O)cc21
TD50 (strain BR 46, males, i.v., site: any site (literature study), lesion: benign tumor, dosed 52 weeks, study length 104 weeks): 0.248 mg/kg/day (inactive)
TD50 (strain BR 46, males, i.v., site: any site (literature study), lesion: malignant tumor, dosed 52 weeks, study length 104 weeks): 0.129 mg/kg/day (inactive)
TD50 (strain BR 46, males, i.v., site: any site (literature study), lesion: several types, types named in the paper, dosed 52 weeks, study length 104 weeks): 0.0787 mg/kg/day (inactive)

N[C@@H](Cc1cnc[nH]1)C(=O)O
carcinogen call (strain F344/DuCrj, females, in feed, site: liver, lesion: hepatocellular adenoma, dosed 104 weeks, study length 107 weeks): negative (inactive)
TD50 (strain F344/DuCrj, males, in feed, site: liver, lesion: hepatocellular adenoma, dosed 104 weeks, study length 107 weeks): 52200 mg/kg/day (inactive)
